Legend:
[1] = cited from earlier work
[2] = Visual appearance of diluted reference and intravenous CBD formulations; format: physicochemical
Excerpt: As a control for the CBD granules, a commercial product was used, namely Epidyolex.
When comparing the two solutions, the second approach qualified as a suitable injectable formulation for the rat study.

For `C=C(C)[C@@H]1CCC(C)=C[C@H]1c1c(O)cc(CCCCC)cc1O` [CBD, cannabidiol], the “Cmax (maximum concentration)” value ([1]; 20 mg of orally delivered CBD/THC sprayed onto a gelatin capsule) is given as 2.4 ng/mL, the “Time to peak plasma concentration” value ([1]; oral delivery) is given as 1 to 4 h and the “visual appearance of intravenous formulation” value ([2]; first approach: 50 mg/ml in 95% ethanol, diluted to 1 mg/ml in 96% saline and 2% polysorbate 80) is given as “formation of fat drops”. The “visual appearance of intravenous formulation” value ([2]; second approach: 50 mg/ml in 1:1 ethanol: polysorbate 80, diluted to 1 mg/ml in 98% saline, 10 or 20 min rest) was “no fat drops and no sediment were observed”.

Reference: patent EP4599821A1, “CANNABIDIOL-COMPRISING LIPOSOMES” (Novozymatic BV, priority 2024, dated 2025)
